# Assay results from patent publication US8293278B2, “Compositions and methods for inhibiting reproduction in tadpole shrimp” (Fresno California State University, priority 2008, dated 2012).
# Experiments:
# [1] = exposed to oxidizing agents in the environment; cited from earlier work
# tadpole shrimp [2] = test: Inhibition of sexual development in tadpole shrimp in laboratory conditions; assay type: in vivo, Triops longicaudatus
# Source text: As above, the dry base, the viscous additive, and the saline solution form the means for delivering the methyl farnesoate. In some embodiments, the composition may include a preparation comprising an effective amount of methyl farnesoate. In some embodiments, the composition can include a minimum of about 0.0001% methyl farnesoate by weight. In some embodiments, the composition can include a maximum of about 0.001% methyl farnesoate by weight. It has been determined that a concentration of as little as about 0.75 micrograms of methyl farnesoate per gram of the final composition is effective for inhibiting sexual development in tadpole shrimp in laboratory conditions. […] Thus, in some embodiments, compositions containing at least about […] micrograms of methyl farnesoate per gram of the final composition may be used to reduce sexual development in tadpole shrimp. However, it is to be appreciated that the percentage of methyl farnesoate by weight may be greater or less than these amounts in accordance with some embodiments of the present invention.
# [3] = Chemical stability of methyl farnesoate (oxidation, heat during drying); assay type: physicochemical; conditions: exposure to temperatures above about 50 degrees Celsius during drying
# Source text: Recent scientific studies have shown that the hormone methyl farnesoate [methyl-(2E,6E,10E)-3,7,11-trimethyldodecatri-2,6,10-eneoate] […] Because methyl farnesoate oxidizes quickly and therefore will not build up large concentrations in the soil, and because it is a fatty acid, it is not considered to be harmful to the environment or adversely affect crop production. However, it is for these same reasons that administration of methyl farnesoate is difficult to administer.
# In some further embodiments, the particles once formed can be dried to have a moisture content of, for example, about 5% and about 18%. Drying the particles assist in the efficient packaging, distribution, and dispensing of the particles. During such drying, the particles should not be exposed to extreme heat, which could reduce methyl farnesoate concentrations. […] Thus, in some embodiments, the pellets may be dried at a temperature below about 50 degrees Celsius. In some embodiments, relatively lower temperature drying can be enhanced by circulating ambient air over the particles.
# tadpole shrimp [4] = conditions: cited from earlier work
smiles,measurement,setting,value
"COC(=O)/C=C(\C)CC/C=C(\C)CCC=C(C)C [methyl farnesoate, methyl-(2E,6E,10E)-3,7,11-trimethyldodecatri-2,6,10-eneoate]",oxidative stability,[1],easily oxidized into farnesoic acid
same,concentration of methyl farnesoate effective for inhibiting sexual development in tadpole shrimp,tadpole shrimp [2],about 0.75 micrograms of methyl farnesoate per gram of the final composition
same,loss of methyl farnesoate concentration from the pellets on heating,[3],significant loss
same,"effect on growth, development and gamete production in pests such as tadpole shrimp",tadpole shrimp [4]; recent scientific studies,"inhibits growth, development, and gamete production"
same,effect on sexual development of tadpole shrimp,tadpole shrimp [4]; studies,reduces sexual development
